Where “and” joins values, the source holds several entries; their conditions need not be identical. Identical values can stand only once.
Target: Glutamate receptor ionotropic, NMDA 1 (Rattus norvegicus, UniProt P35439)

## CC1(C2(C)COC(c3ccccc3)(c3ccccc3)O2)CCCCN1 (stereo unspecified) [CAS_4792-18-1]
  Ki: 2220 nM and 2340 nM and > 10000 nM and 3790 nM
